Results reported in article PMC11018795, “The regulatory relationship between NAMPT and PD-L1 in cancer and identification of a dual-targeting inhibitor” (EMBO Molecular Medicine, 2024).
Where “and” joins values, the source holds several entries; their conditions need not be identical. Equal entries are not always repeated.

Key:
LLC cells = experiment: Cell cycle analysis, LLC; type: cell-based, mouse
From the text: Supplement 44321_2024_51_MOESM5_ESM.zip/Fig4-D.xlsx, sheet "Sheet1" | column: G0/G1; S; G2/M

NAMPT = NAMPT (Homo sapiens, UniProt P43490); experiment: Cellular thermal shift assay (CETSA), NAMPT, A2780 cells; type: binding; parameters: endogenous in cells; host or cells: A2780; conditions: for Relative band intensity (NAMPT): LZFPN-90 20 nM
Procedure: The cells were resuspended in 1× PBS supplemented with protease inhibitors (Roche) and then divided into strip tubes for 30 min. The tubes were centrifuged at 15,000× g at 4 °C for 15 min. After centrifugation, the supernatant was divided into DMSO and LZFPN-90 (20 nM) groups, and incubated at room temperature for 30 min. According to standard procedures (38 °C, 42 °C, 46 °C, 50 °C, 54 °C, 58 °C, 62 °C, 66 °C), each temperature group was heated for 3 min, incubated at room temperature for 3 min. Then centrifuged at 20,000× g for 25 min, the supernatant was collected, 1× loading buffer was added, the mixture was heated in a metal bath at 95 °C for 10 min, and the amount of non-denatured protein per sample was quantified by western blotting.

[1] = system: NAD+ content of LLC OE NAMPT/PD-L1 tumor tissue; experiment: NAD+ in tumor tissue, LLC OE NAMPT/PD-L1 mouse model; type: in vivo; conditions: 20 mg/kg
MKN74 cells = experiment: MTT assay 48 h, MKN74; type: cell-based, human
Procedure: (§1) Cells (5 × 10^3/well) were seeded into a 96-well plate and cultured at 37 °C in a 5% CO2 incubator. […] At the final time point, 10 μl MTT solution (5 mg/ml, Sigma, Burlington, MA, USA) was added to each well and incubated for an additional 4 h at 37 °C in a 5% CO2 incubator. Then,100 μl of DMSO was added to each well and mixed thoroughly. Optical density was measured at 492 nm using a microplate reader (Molecular Devices, San Jose, CA, USA).

A20 tumors = experiment: A20 tumor-bearing Balb/c mice; type: in vivo, mouse; conditions: for tumor inhibition rate (TIR) / tumor growth inhibition (TGI) rate at endpoint: 12 days, Fig 6B
[2] = system: LLC Vector cells co-cultured with T cells; experiment: T cell-mediated tumor cell killing assay, LLC Vector; type: cell-based; conditions: Mus musculus, 100 nM, read-out: inhibition rate (T cell-mediated killing)
Procedure: To acquire activated T cells, human peripheral blood mononuclear cells (PBMC; LTS1077, Yanjin Biological) were cultured in CTSTM AIIM VTM SFM (A3021002; Gibco) with ImmunoCult Human CD3/CD28/CD2 T-cell activator (25 µL/mL; […] Technologies, Cat#10970) for 48 h according to the manufacturer’s protocol. The experiments were performed using mouse anti-CD3 antibody (1 µg/mL; Thermo Scientific, 16-0032-82) and anti-CD28 antibody(5 µg/mL; Thermo Scientific, 16-0281-82). Cancer cells were allowed to adhere to the plates overnight and then incubated for 48 h with activated T cells in the presence or absence of DX ([…]). Different proportions of cancer cells and activated T cells were utilized according to the purpose of each experiment. The T-cell proliferation assay was 1:3; the T-cell killing assay was 1:10; T cells and cell debris were removed by PBS washing, and the living cancer cells were then quantified by a spectrometer at OD (570 nm) followed by crystal violet staining. page 12: Fig 3: […] expression patterns. […] Data was obtained from the TCGA database. (B) T cell-mediated tumor cell killing assay. T cells were co-cultured with LLC Vector, […] CQ-85, or BMS202. […] stained by crystal violet. The relative added value of activated T cells is shown below. Data are presented as mean ± SEM; *P < 0.05, **P < 0.01, ***P < 0.001, compared with control. n.s., not significant. […]

[3] = system: LLC cells co-cultured with T cells; experiment: T cell killing assay (colony formation), LLC sh Vector; type: cell-based; conditions: Mus musculus, 72 h, 100 nM, three days, read-out: inhibition rate of colony formation number
Procedure: To acquire activated T cells, human peripheral blood mononuclear cells (PBMC; LTS1077, Yanjin Biological) were cultured in CTSTM AIIM VTM SFM (A3021002; Gibco) with ImmunoCult Human CD3/CD28/CD2 T-cell activator (25 μL/mL; […] Technologies, Cat#10970) for 48 h according to the manufacturer's protocol. The experiments were performed using mouse anti-CD3 antibody (1 μg/mL; Thermo Scientific, 16-0032-82) and anti-CD28 antibody(5 μg/mL; Thermo Scientific, 16-0281-82). […] Different proportions of cancer cells and activated T cells were utilized according to the purpose of each experiment. The T-cell proliferation assay was 1:3; the T-cell killing assay was 1:10; T cells and cell debris were removed by PBS washing, and the living cancer cells were then quantified by a spectrometer at OD (570 nm) followed by crystal violet staining. page 28: Fig 8: Effects of LZFPN-90 and NMN on tumor immune microenvironment. […] (C) T cells were co-cultured with LLC cells, and treated with LZFPN-90 (100 nM), and NMN (1 mM) to detect the cell proliferation by T cell killing assay. Data are presented as mean ± SEM; *P < 0.05, **P < 0.01, ***P < 0.001 compared with control. n.s., not significant. (1 picture or pasted object on this page, not shown here)

HCT-116 cells = experiment: Apoptosis assay (Annexin V/PI), HCT-116; type: cell-based, human; conditions: HCT116
Procedure: The cells are treated with the compounds. After 48–72 h, the cells were harvested and washed twice with cold PBS. The cells were then stained with Annexin V/propidium iodide (PI) (BD Biosciences) and examined using a NovoCyte Flow Cytometer (ACEA Biosciences). Data were analyzed using NovoExpress software (ACEA Biosciences).

A549 cells = experiment: MTT assay 48 h, A549; type: cell-based, human
Procedure: as §1

NAMPT, sequence (P43490 whole entry): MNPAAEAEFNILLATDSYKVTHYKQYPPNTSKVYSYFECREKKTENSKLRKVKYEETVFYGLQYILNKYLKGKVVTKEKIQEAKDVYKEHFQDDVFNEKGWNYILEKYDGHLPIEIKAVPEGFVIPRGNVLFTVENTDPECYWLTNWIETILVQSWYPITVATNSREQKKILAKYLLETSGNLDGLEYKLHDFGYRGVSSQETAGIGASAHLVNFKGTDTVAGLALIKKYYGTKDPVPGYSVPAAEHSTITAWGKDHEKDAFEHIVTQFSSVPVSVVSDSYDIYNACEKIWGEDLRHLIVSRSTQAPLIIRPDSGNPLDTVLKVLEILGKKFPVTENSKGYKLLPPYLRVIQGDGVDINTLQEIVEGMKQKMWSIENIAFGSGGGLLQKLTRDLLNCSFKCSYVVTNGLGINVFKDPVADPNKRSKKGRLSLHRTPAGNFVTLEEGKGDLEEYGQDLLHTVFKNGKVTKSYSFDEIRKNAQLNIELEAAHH

**Q.** With CCN(CC)CCCOc1cccc(-c2cccc3c2CCN3C(=O)c2ncc(CNC(=NC#N)Nc3ccncc3)s2)c1 [LZFPN-90] as the molecule, how does the “Cell cycle G0/G1” value (LLC cells; LZ90 20) read?
**A.** 32.7 and 33.42 and 33.1

**Q.** What about the “Cell cycle G2/M” value (LLC cells; LZ90 20) of the same molecule?
**A.** 8.23 and 9.12 and 10.84

**Q.** And the “Cell cycle S” value (LLC cells; LZ90 20)?
**A.** 58.16 and 55.72 and 58.65

**Q.** And the “Cell cycle G0/G1” value (LLC cells; LZ90 40)?
**A.** 31.17 and 30.64 and 32.74

**Q.** And the “Cell cycle G2/M” value (LLC cells; LZ90 40)?
**A.** 10.63 and 9.6 and 10.7

**Q.** What about the “Cell cycle S” value (LLC cells; LZ90 40) of the same molecule?
**A.** 59.19 and 58.63 and 56.62

**Q.** What about the “Cell cycle G0/G1” value (LLC cells; LZ90 60) of the same molecule?
**A.** 31.65 and 30.97 and 32.77

**Q.** What about the “Cell cycle G2/M” value (LLC cells; LZ90 60) of the same molecule?
**A.** 11.3 and 9.97 and 11.14

**Q.** What about the “Cell cycle S” value (LLC cells; LZ90 60) of the same molecule?
**A.** 58.36 and 57.86 and 55.9

**Q.** What about the “thermal stability of NAMPT” value (NAMPT; LZFPN-90 20 nM vs blank group) of the same molecule?
**A.** the stability of NAMPT and PD-L1 increased

**Q.** And the “Relative band intensity (NAMPT)” value (NAMPT; 38 ℃)?
**A.** 1.21 and 1.06

**Q.** What about the “Relative band intensity (NAMPT)” value (NAMPT; 42 ℃) of the same molecule?
**A.** 1.16 and 1.1

**Q.** And the “Relative band intensity (NAMPT)” value (NAMPT; 46 ℃)?
**A.** 1.06 and 1.08

**Q.** What about the “Relative band intensity (NAMPT)” value (NAMPT; 50 ℃) of the same molecule?
**A.** 1.08 and 1.02

**Q.** What about the “Relative band intensity (NAMPT)” value (NAMPT; 54 ℃) of the same molecule?
**A.** 1.25 and 1.19

**Q.** And the “Relative band intensity (NAMPT)” value (NAMPT; 58 ℃)?
**A.** 1.21 and 1.16

**Q.** And the “Relative band intensity (NAMPT)” value (NAMPT; 62 ℃)?
**A.** 1.18 and 1.13

**Q.** And the “Relative band intensity (NAMPT)” value (NAMPT; 66 ℃)?
**A.** 0.52 and 0.48

**Q.** What about the “effect on NAD+ content in tumor tissues” value [1] of the same molecule?
**A.** reduced NAD^+ content in tumor tissues

**Q.** What about the “NAD+ in 20 mg tissue” value ([1]; tumor tissue) of the same molecule?
**A.** 221.603 and 139.494 and 234.768

**Q.** What about the “Relative inhibition (敏感性)” value (MKN74 cells) of the same molecule?
**A.** 0.79

**Q.** What about the “tumor inhibition rate (TIR) / tumor growth inhibition (TGI) rate at endpoint” value (A20 tumors; 20 mg/kg i.p.) of the same molecule?
**A.** 73.76%

**Q.** What about the “tumor inhibition rate (TIR) / tumor growth inhibition (TGI) rate at endpoint” value (A20 tumors; 40 mg/kg i.p.) of the same molecule?
**A.** 83.11%

**Q.** And the “effect on mouse organ or body weight” value (A20 tumors; A20 model, FK866 20 mg/kg, LZFPN-90 20 and 40 mg/kg i.p.)?
**A.** no obvious effect on mouse organ or body weight

**Q.** What about the “TIR (relative tumor weight)” value (A20 tumors; Balb/c mice, 20 mg/kg i.p., Fig 6E) of the same molecule?
**A.** 73.8%

**Q.** What about the “tumor inhibition rate (TIR)” value (A20 tumors; repeat experiment, 40 mg/kg i.p.) of the same molecule?
**A.** 82.70%

**Q.** What about the “effect on mouse organ index or body weight” value (A20 tumors; repeat experiment, LZFPN-90 40 mg/kg, FK866 20 mg/kg + CQ-85 20 mg/kg i.p.) of the same molecule?
**A.** no obvious effect on mouse organ index or body weight

**Q.** What about the “effect on body weight and organ index” value (A20 tumors; two animal models (A20 and LLC OE NAMPT/PD-L1)) of the same molecule?
**A.** did not affect the body weight and organ index

**Q.** What about the inhibition at 0.1 µM [2] of the same molecule?
**A.** ~40%

**Q.** And the inhibition at 0.1 µM [3]?
**A.** 48.2%

**Q.** And the “Apoptotic cells (sum of both Annexin-positive quadrants)” value (shortened to “Apoptotic cells”) (HCT-116 cells; LZ90 15 nM)?
**A.** 9.8 and 11.59 and 10.81

**Q.** And the “Apoptotic cells” value (HCT-116 cells; LZ90 60 nM)?
**A.** 14.57 and 17.94 and 17.19

**Q.** What about the “Apoptotic cells” value (HCT-116 cells; LZ90 240 nM) of the same molecule?
**A.** 13.96 and 15.34 and 15.58

**Q.** What about the “Relative inhibition (敏感性)” value (A549 cells) of the same molecule?
**A.** 0.24
